Measurements reported in ChEMBL document CHEMBL5032520, “Low-Valent Calix[4]arene Glycoconjugates Based on Hydroxamic Acid Bearing Linkers as Potent Inhibitors in a Model of Ebola Virus Cis-Infection and HCMV-gB-Recombinant Glycoprotein Interaction with MDDC Cells by Blocking DC-SIGN” (J Med Chem, 2021).

Tests used:
Human betaherpesvirus 5 [1] = assay: Potency index, ratio of Mannan IC50 to test compound IC50 for antiviral activity against HCMV infected in U-937 cells expressed in DC-SIGN using flow cytometry; format: functional
Human betaherpesvirus 5 [2] = assay: Antiviral activity against HCMV infected in U-937 cells expressed in DC-SIGN using flow cytometry; format: functional, organism-based; details: Human betaherpesvirus 5, U-937

CC(C)(C)c1cc2c(OCCCn3cc(CN(O)C(=O)CCCCCn4cc(CO[C@H]5O[C@H](CO)[C@@H](O)[C@H](O)[C@@H]5O)nn4)nn3)c(c1)Cc1cc(C(C)(C)C)cc(c1OCCCn1cc(CN(O)C(=O)CCCCCn3cc(CO[C@H]4O[C@H](CO)[C@@H](O)[C@H](O)[C@@H]4O)nn3)nn1)Cc1cc(C(C)(C)C)cc(c1OCCCn1cc(CN(O)C(=O)CCCCCn3cc(CO[C@H]4O[C@H](CO)[C@@H](O)[C@H](O)[C@@H]4O)nn3)nn1)Cc1cc(C(C)(C)C)cc(c1OCCCn1cc(CN(O)C(=O)CCCCCn3cc(CO[C@H]4O[C@H](CO)[C@@H](O)[C@H](O)[C@@H]4O)nn3)nn1)C2
Ratio IC50 (Human betaherpesvirus 5 [1]): 34 | IC50 (Human betaherpesvirus 5 [2]): 0.45 µg/mL

COC(=O)CNC(=O)CN(Cc1cn(CCCOc2c3cc(C(C)(C)C)cc2Sc2cc(C(C)(C)C)cc(c2OCCCn2cc(CN(CC(=O)NCC(=O)OC)C(=O)CCCCCn4cc(CO[C@@H]5O[C@@H](C)[C@@H](O)[C@@H](O)[C@@H]5O)nn4)nn2)Sc2cc(C(C)(C)C)cc(c2OCCCn2cc(CN(CC(=O)NCC(=O)OC)C(=O)CCCCCn4cc(CO[C@@H]5O[C@@H](C)[C@@H](O)[C@@H](O)[C@@H]5O)nn4)nn2)Sc2cc(C(C)(C)C)cc(c2OCCCn2cc(CN(CC(=O)NCC(=O)OC)C(=O)CCCCCn4cc(CO[C@@H]5O[C@@H](C)[C@@H](O)[C@@H](O)[C@@H]5O)nn4)nn2)S3)nn1)C(=O)CCCCCn1cc(CO[C@@H]2O[C@@H](C)[C@@H](O)[C@@H](O)[C@@H]2O)nn1
Ratio IC50 (Human betaherpesvirus 5 [1]): 4.91 | IC50 (Human betaherpesvirus 5 [2]): 3.15 µg/mL

C[C@@H]1O[C@@H](OCc2cn(CCCCCC(=O)N(O)Cc3cn(CCCOc4c5cc(C(C)(C)C)cc4Cc4cc(C(C)(C)C)cc(c4OCCCn4cc(CN(O)C(=O)CCCCCn6cc(CO[C@@H]7O[C@@H](C)[C@@H](O)[C@@H](O)[C@@H]7O)nn6)nn4)Cc4cc(C(C)(C)C)cc(c4OCCCn4cc(CN(O)C(=O)CCCCCn6cc(CO[C@@H]7O[C@@H](C)[C@@H](O)[C@@H](O)[C@@H]7O)nn6)nn4)Cc4cc(C(C)(C)C)cc(c4OCCCn4cc(CN(O)C(=O)CCCCCn6cc(CO[C@@H]7O[C@@H](C)[C@@H](O)[C@@H](O)[C@@H]7O)nn6)nn4)C5)nn3)nn2)[C@@H](O)[C@H](O)[C@@H]1O
Ratio IC50 (Human betaherpesvirus 5 [1]): 31 | IC50 (Human betaherpesvirus 5 [2]): 0.5 µg/mL

OC[C@H]1O[C@@H](O[C@H]2[C@H](O)[C@@H](O)[C@H](O[C@H]3[C@H](O)[C@H](O)[C@H](O[C@@H]4[C@H](O)[C@H](O)[C@H](O)O[C@@H]4CO)O[C@@H]3CO)O[C@@H]2CO)[C@@H](O)[C@@H](O)[C@@H]1O
IC50 (Human betaherpesvirus 5 [2]): 15.5 nM

COC(=O)CNC(=O)CN(Cc1cn(CCCOc2c3cc(C(C)(C)C)cc2Cc2cc(C(C)(C)C)cc(c2OCCCn2cc(CN(CC(=O)NCC(=O)OC)C(=O)CCCCCn4cc(CO[C@@H]5O[C@@H](C)[C@@H](O)[C@@H](O)[C@@H]5O)nn4)nn2)Cc2cc(C(C)(C)C)cc(c2OCCCn2cc(CN(CC(=O)NCC(=O)OC)C(=O)CCCCCn4cc(CO[C@@H]5O[C@@H](C)[C@@H](O)[C@@H](O)[C@@H]5O)nn4)nn2)Cc2cc(C(C)(C)C)cc(c2OCCCn2cc(CN(CC(=O)NCC(=O)OC)C(=O)CCCCCn4cc(CO[C@@H]5O[C@@H](C)[C@@H](O)[C@@H](O)[C@@H]5O)nn4)nn2)C3)nn1)C(=O)CCCCCn1cc(CO[C@@H]2O[C@@H](C)[C@@H](O)[C@@H](O)[C@@H]2O)nn1
Ratio IC50 (Human betaherpesvirus 5 [1]): 6.45 | IC50 (Human betaherpesvirus 5 [2]): 2.4 µg/mL
